{
  "source": "patent US5616615A",
  "about": "“Enaminone esters” (priority 1995, dated 1997)",
  "key": {"[1]": {"tested_on": "Maximal electroshock seizures", "assay": "MES maximal electroshock seizure test, mice ip", "format": "in vivo", "parameters": "TPE (time of peak effect), activity: unit not given here", "settings": "ip; for responders at 10 mg/kg: read-out: MES, animals protected/tested (converted); for responders at 300 mg/kg: read-out: MES, animals protected/tested", "description": "Three tests were performed:\n1. MES--Electroshock Seizure Test\n(§1) Maximal electroshock seizures are elicited with a 60-cycle alternating current of 50 mA intensity (5-7 times that necessary to elicit minimal electroshock seizures) delivered via corneal electrodes for 0.2 seconds. A drop of 0.9% saline is instilled in the eye prior to application of the electrodes in order to […]."}, "[2]": {"tested_on": "Subcutaneous Pentylenetetrazol seizure", "assay": "sc Met subcutaneous pentylenetetrazol (Metrazol) seizure test, mice", "format": "in vivo", "settings": "Mus musculus, sc; for responders at 10 mg/kg: read-out: scMet, animals protected/tested; for responders at 300 mg/kg: read-out: scMet, animals protected/tested (converted)", "quoted_text": "2. sc Met--Subcutaneous Pentylenetetrazol (Metrazol^R) Seizure Test\nThe animal is observed for 30 minutes. Failure to observe even a threshold seizure (a single episode of clonic spasms of at least 5 seconds duration) is defined as protection and the results are expressed as the number of animals protected/the number of animals tested."}, "in vivo [3]": {"assay": "in vivo", "settings": "mouse, in vivo, ip", "description": "The first phase of the ADD Program involved performing tests on male Carworth Farms #1 mice. […] Three tests were performed:\nIn the second phase of the ADD program protocol, estimates of anticonvulsant activity and neurotoxicity are quantified. The median effective dose (ED50) in the MES, sc Met, and rotorod test is determined. In the case of a compound with apparent activity in only one anticonvulsant test, testing is carried out in the other up to, and in some cases beyond, doses which produce neurological deficit. Compounds which fail to produce minimal neurological deficit are tested whenever possible to doses ten times their lowest anticonvulsant ED50. […] The rotorod ED50 is determined at the time of the peak neurologic deficit."}, "electroshock seizures": {"tested_on": "electroshock seizures", "assay": "MES maximal electroshock test, rats ip", "format": "in vivo", "settings": "100 mg/kg", "text": "as §1"}, "[4]": {"tested_on": "Maximal electroshock seizures", "assay": "Phase VI oral MES test, rats", "format": "in vivo", "settings": "oral; for responders at 50 mg/kg: Rattus norvegicus, read-out: MES, animals protected/tested (converted)", "text": "as §1\n(§2) This oral screen is designated as phase VI."}, "in vivo [5]": {"assay": "in vivo", "settings": "rat, po", "text": "as §2"}, "Corneal Kindled rats": {"tested_on": "Corneal Kindled rats", "assay": "Corneal kindling", "format": "in vivo", "description": "Corneal kindling studies were performed in our laboratories on 12 and 27 and the results are shown in Tables XI and XII and FIGS. 1A and 1B. Comparative data for the commercial products are included. Seizures evoked in electroshock-kindled rats provide a suitable model consistent with complex partial seizures evolving into generalized motor seizures in humans.\n^a Rats kindled to Stage 5. Endpoint was reduction from Stage 5 to […]"}, "[6]": {"tested_on": "Amygdala Kindled Seizures", "assay": "Suppression of amygdala kindled seizures", "format": "in vivo", "description": "Compounds 12 and 27 were evaluated in our laboratory for suppression of amygdala kindled seizures."}, "bicuculline": {"tested_on": "bicuculline", "assay": "Phase V quantification against bicuculline", "format": "in vivo", "settings": "12.5, 25, 50 and 100 mg/kg", "description": "(§3) Both 12 and 27 were evaluated in Phase V of the ADD Program evaluation scheme. Phase V provides quantification against bicuculline, picrotoxin, pentylenetetrazol, and strychnine. This screen provides information on the mechanism of action of the anticonvulsant activity. Bicuculline, picrotoxin, and strychnine correspond to GABA inhibitory function, chloride channel inhibition and inhibition by glycine respectively."}, "picrotoxin": {"tested_on": "picrotoxin", "assay": "Phase V quantification against picrotoxin", "format": "in vivo", "settings": "12.5, 25, 50 and 100 mg/kg", "description": "as §3"}, "pentylenetetrazol": {"tested_on": "pentylenetetrazol", "assay": "Phase V quantification against pentylenetetrazol", "format": "in vivo", "settings": "12.5, 25, 50 and 100 mg/kg", "description": "as §3"}, "strychnine": {"tested_on": "strychnine", "assay": "Phase V quantification against strychnine", "format": "in vivo", "settings": "12.5, 25, 50 and 100 mg/kg", "description": "as §3"}, "seizures": {"tested_on": "seizures", "assay": "Anticonvulsant evaluation (ASP phase I / overall)", "format": "in vivo, mice", "method_in_brief": "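Male Carworth Farms #1 mice; maximal electroshock seizures elicited by 60-cycle AC, 50 mA, 0.2 s via corneal electrodes after a drop of 0.9% saline in the eye. Animals observed for 30 minutes.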"}, "Neurotoxicity, rats ip": {"assay": "Neurotoxicity, rats ip", "settings": "100 mg/kg", "quoted_text": "The rotorod test is used to elevate neurotoxicity. The animal is placed on a 1 inch diameter knurled plastic rod rotating at 6 rpm. […] Neurologic toxicity is defined as the failure of the animal to remain on the rod for 1 minute and the results are expressed as the number of animals protected/the number of animals tested.\nThe toxicity evaluation for the commercial agents as previously indicated was based on the onset of ataxia."}},
  "note": "Where two headings read alike, the source gives them in different places.",
  "data": [
    {"smiles": "COC(=O)C1C(=O)C=C(NCc2ccccc2)CC1C", "note": "(stereo not shown) [Compound 12, Methyl 4-(benzyl)amino-6-methyl-2-oxocyclohex-3-en-1-oate]", "values": [
      {"measurement": "responders at 10 mg/kg", "setting": "[1]; Mus musculus, 0.5 h, 30 min", "value": 66.7, "unit": "%"},
      {"measurement": "responders at 300 mg/kg", "setting": "[1]; Mus musculus, 0.5 h, 30 min", "value": 100, "unit": "%"},
      {"measurement": "responders at 10 mg/kg", "setting": "[1]; Mus musculus, 4 h, 4 h", "value": 0, "unit": "%"},
      {"measurement": "responders at 300 mg/kg", "setting": "[1]; Mus musculus, 4 h, 4 h", "value": 0, "unit": "%"},
      {"measurement": "ED50", "setting": "[1]; Mus musculus, Phase II, time of peak effect", "value": 64.7, "unit": "mg/kg"},
      {"measurement": "TPE (time of peak effect), activity", "setting": "[1]; Phase II", "value": 0.5},
      {"measurement": "responders at 10 mg/kg", "setting": "[2]; 0.5 h, 30 min", "value": 10, "unit": "%"},
      {"measurement": "responders at 300 mg/kg", "setting": "[2]; 0.5 h, 30 min", "value": 0, "unit": "%"},
      {"measurement": "responders at 10 mg/kg", "setting": "[2]; 4 h, 4 h", "value": 10, "unit": "%"},
      {"measurement": "responders at 300 mg/kg", "setting": "[2]; 4 h, 4 h", "value": 0, "unit": "%"},
      {"measurement": "TD50", "setting": "in vivo [3]", "value": "> 500", "unit": "mg/kg"},
      {"measurement": "TPE (time of peak effect), toxicity", "setting": "in vivo [3]", "value": 1},
      {"measurement": "selectivity ratio", "setting": "in vivo [3]", "value": 7.73},
      {"measurement": "MES, animals protected/tested", "setting": "electroshock seizures; 0.25 h (Table X)", "value": "4/4"},
      {"measurement": "MES, animals protected/tested", "setting": "electroshock seizures; 0.50 h (Table X)", "value": "4/4"},
      {"measurement": "MES, animals protected/tested", "setting": "electroshock seizures; 1.00 h (Table X)", "value": "4/4"},
      {"measurement": "MES, animals protected/tested", "setting": "electroshock seizures; 2.00 h (Table X)", "value": "4/4"},
      {"measurement": "MES, animals protected/tested", "setting": "electroshock seizures; 4.00 h (Table X)", "value": "3/4"},
      {"measurement": "ED50", "setting": "[4]; Phase VI, rat", "value": 26.8, "unit": "mg/kg"},
      {"measurement": "responders at 50 mg/kg", "setting": "[4]; 0.5 h, 0.50 h", "value": 100, "unit": "%"},
      {"measurement": "responders at 50 mg/kg", "setting": "[4]; 0.25 h", "value": 50, "unit": "%"},
      {"measurement": "responders at 50 mg/kg", "setting": "[4]; 1.00 h", "value": 75, "unit": "%"},
      {"measurement": "responders at 50 mg/kg", "setting": "[4]; 2.00 h", "value": 50, "unit": "%"},
      {"measurement": "responders at 50 mg/kg", "setting": "[4]; 4.00 h", "value": 50, "unit": "%"},
      {"measurement": "TD50", "setting": "in vivo [5]", "value": "> 500", "unit": "mg/kg"},
      {"measurement": "selectivity ratio", "setting": "in vivo [5]", "value": 18.7},
      {"measurement": "Tox, animals toxic/tested", "setting": "in vivo [5]; 50 mg/kg", "value": "0/4"},
      {"measurement": "% Reduction", "setting": "Corneal Kindled rats; 50 mg/kg", "value": 17, "unit": "%"},
      {"measurement": "% Reduction", "setting": "Corneal Kindled rats; 60 mg/kg", "value": 23, "unit": "%"},
      {"measurement": "% Reduction", "setting": "Corneal Kindled rats; 75 mg/kg", "value": 75, "unit": "%"},
      {"measurement": "ED50", "setting": "Corneal Kindled rats; Rattus norvegicus, po, 0.5 h, read-out: ED50 (reduction from Stage 5 to Stage 4)", "value": 41.9, "unit": "mg/kg"},
      {"measurement": "Afterdischarge Amygdala: Duration", "setting": "[6]; 500 mg/kg", "value": 73.9, "unit": "s"},
      {"measurement": "Afterdischarge Cortex: Duration", "setting": "[6]; 500 mg/kg", "value": 78.9, "unit": "s"},
      {"measurement": "Afterdischarge Cortex: Latency", "setting": "[6]; 500 mg/kg", "value": 2.8, "unit": "s"},
      {"measurement": "Behavioral Seizure: Duration", "setting": "[6]; 500 mg/kg", "value": 79.5, "unit": "s"},
      {"measurement": "Behavioral Seizure: Latency", "setting": "[6]; 500 mg/kg", "value": 2.1, "unit": "s"},
      {"measurement": "Forelimb Clonus: Duration", "setting": "[6]; 500 mg/kg", "value": 44.2, "unit": "s"},
      {"measurement": "Forelimb Clonus: Latency", "setting": "[6]; 500 mg/kg", "value": 9.3, "unit": "s"},
      {"measurement": "Seizure Stage", "setting": "[6]; 500 mg/kg", "value": 5.0},
      {"measurement": "suppression of amygdala kindled seizures", "setting": "[6]; in vivo", "value": "no significant activity"},
      {"measurement": "protection against bicuculline", "setting": "bicuculline", "value": "uniformly inactive"},
      {"measurement": "protection against picrotoxin", "setting": "picrotoxin", "value": "uniformly inactive"},
      {"measurement": "protection against pentylenetetrazol", "setting": "pentylenetetrazol", "value": "uniformly inactive"},
      {"measurement": "protection against strychnine", "setting": "strychnine", "value": "uniformly inactive"},
      {"measurement": "minimal effective dose", "setting": "seizures; Mus musculus, ip, Phase I, read-out: ASP Classification", "value": "< 100", "unit": "mg/kg"},
      {"measurement": "anticonvulsant activity", "setting": "seizures; mouse, in vivo", "value": "highly active"},
      {"measurement": "Tox, animals toxic/tested", "setting": "Neurotoxicity, rats ip; 0.25 h (Table X)", "value": "0/4"},
      {"measurement": "Tox, animals toxic/tested", "setting": "Neurotoxicity, rats ip; 0.50 h (Table X)", "value": "0/4"},
      {"measurement": "Tox, animals toxic/tested", "setting": "Neurotoxicity, rats ip; 1.00 h (Table X)", "value": "0/4"},
      {"measurement": "Tox, animals toxic/tested", "setting": "Neurotoxicity, rats ip; 2.00 h (Table X)", "value": "0/4"},
      {"measurement": "Tox, animals toxic/tested", "setting": "Neurotoxicity, rats ip; 4.00 h (Table X)", "value": "0/4"},
      {"measurement": "toxicity", "setting": "Neurotoxicity, rats ip; ip, four hour evaluation", "value": "No toxicity was noted"}
    ]}
  ]
}
